Measurements taken from patent US20250262201A1, “COMPOUNDS AND METHODS USEFUL FOR STABILIZING PHENYLALANINE HYDROXYLASE MUTATIONS” (Agios Pharmaceuticals, Inc., priority 2022, published 2025).

biological target: T1, human PAH with the R408W mutation (Homo sapiens, UniProt P00439, R408W); assay: Cell Based Phenylalanine Flux Assay; parameters: scale not given here; conditions: A375 R408W cells, 24 hrs with compound, then 20 μM sepiapterin and 800 μM 13C9,15N-Phenylalanine for 4 hours; 13C-Tyrosine by LC-MS; average where tested multiple times
T1 construct: expressed in transfected cells
T1 sequence (P00439 1-452 R408W): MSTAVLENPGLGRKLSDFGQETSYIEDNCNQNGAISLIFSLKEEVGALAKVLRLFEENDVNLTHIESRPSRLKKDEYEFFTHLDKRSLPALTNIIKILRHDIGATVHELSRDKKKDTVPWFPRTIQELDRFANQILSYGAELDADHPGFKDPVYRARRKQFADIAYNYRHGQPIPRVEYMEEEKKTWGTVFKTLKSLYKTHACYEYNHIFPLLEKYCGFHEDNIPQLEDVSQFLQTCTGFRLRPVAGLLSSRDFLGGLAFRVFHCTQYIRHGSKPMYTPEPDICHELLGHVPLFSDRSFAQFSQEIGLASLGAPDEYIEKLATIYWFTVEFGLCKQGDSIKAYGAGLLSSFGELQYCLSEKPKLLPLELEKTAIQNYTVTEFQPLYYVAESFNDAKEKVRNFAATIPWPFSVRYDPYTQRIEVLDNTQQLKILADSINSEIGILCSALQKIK

AC50 | Compound
E, E | Cn1cc(-c2nc(C(F)F)c(C(=O)N3CCc4[nH]cnc4C3c3ncc4ccccc4n3)o2)cn1 (stereo not shown)
E, E | CC1CN(C(=O)c2oc(-c3ccccn3)nc2C(F)(F)F)C(c2cc3ccccc3cn2)c2nc[nH]c21 [(4S, 7R) diastereomer of (4-(isoquinolin-3-yl)-7-methyl-6,7-]

same assay, conditions: A375 R408W cells, 24 hrs with compound, then 20 μM sepiapterin and 800 μM 13C9,15N-Phenylalanine for 4 hours; 13C-Tyrosine by LC-MS; average where tested multiple times; read-out: AC50

AC50 | Compound
1 to 5 µM | CN(C)Cc1ccc2c(C(=O)N3CC4(CC4)c4[nH]cnc4C3c3cc4ccccc4cn3)cnn2c1 (stereo not shown)
1 to 5 µM | CC(C)(O)c1cc(C(=O)N2CCc3[nH]cnc3C2c2ccc3ccccc3n2)on1 (stereo not shown)
1 to 5 µM | Cc1nc(N2CCN(C)CC2)oc1C(=O)N1CCc2[nH]cnc2C1c1ccc2ccccc2n1 (stereo not shown)
1 to 5 µM | CC1CN(C(=O)c2nnc(N(C)C)o2)C(c2cc3ccccc3cn2)c2nc[nH]c21 (stereo not shown)
> 5 µM | O=C(c1cnc(C(F)(F)F)s1)N1CCc2[nH]cnc2C1c1cn2ccccc2n1 (stereo not shown)
1 to 5 µM | CC1CN(C(=O)c2nnc(-c3cnn(C)c3)o2)C(c2cc3ccccc3cn2)c2nc[nH]c21 (stereo not shown)
> 5 µM | O=C(Cc1cnn2ccccc12)N1CCc2[nH]cnc2C1c1cn2ccccc2n1 (stereo not shown)
1 to 5 µM | O=C(C1CC1(F)F)N1CCc2[nH]cnc2C1c1cn2ccccc2n1 (stereo not shown) [listing 1 of 2 here]
1 to 5 µM | CC1CN(C(=O)c2nnc(N3CCC(F)CC3)o2)C(c2cc3ccccc3cn2)c2nc[nH]c21 (stereo not shown)
1 to 5 µM | CC(C)(O)c1cc(C(=O)N2CCc3[nH]cnc3C2c2ccc3ccccc3n2)no1 (stereo not shown)
> 5 µM | O=C(c1cnn(CC(F)(F)F)c1Cl)N1CCc2[nH]cnc2C1c1ccc2ccccc2n1 (stereo not shown)
1 to 5 µM | O=C(C1CC1(F)F)N1CCc2[nH]cnc2C1c1cn2ccccc2n1 (stereo not shown) [listing 2 of 2 here]
> 5 µM | O=C(C1CN(c2ccccn2)C1)N1CCc2[nH]cnc2C1c1ccc2ccccc2n1 (stereo not shown)

Compound | AC50
Cc1ncoc1C(=O)N1CC2(CC2)c2[nH]cnc2[C@H]1c1ccc2ccccc2n1 (single isomer, unassigned) | > 5 µM

same assay, conditions: A375 cells expressing human R408W PAH; 24 hrs compound incubation; 13C-Tyrosine by LC-MS; average where tested multiple times; read-out: AC50

AC50 | Compound
< 0.5 µM | O=C(c1nncs1)N1CCc2[nH]cnc2[C@H]1c1cc2ccccc2cn1 [Example 350, (R)-(4-(isoquinolin-3-yl)-6,7-dihydro-1H-imidazo[4,5-c]pyridin-5(4H)-yl)(1,3,4-thiadiazol-2-yl)methanone]
< 0.5 µM | O=C(CC1(O)CCC1)N1CCc2[nH]cnc2C1c1ccc2ccccc2n1 (stereo in doubt) [Example 59, (R)-2-(1-hydroxycyclobutyl)-1-(4-(quinolin-2-yl)-6,7-dihydro-1H-imidazo[4,5-c]pyridin-5(4H)-yl)ethanone]
> 5 µM | O=C(c1nnc(-c2ccc(OC(F)(F)F)cn2)o1)N1CCc2[nH]cnc2[C@@H]1c1ncc2ccccc2n1 [Example 196, (R)-(4-(quinazolin-2-yl)-6,7-dihydro-1H-imidazo[4,5-c]pyridin-5(4H)-yl)(5-(5-(trifluoromethoxy)pyridin-2-yl)-1,3,4-oxadiazol-2-yl)methanone]
> 5 µM | O=C(c1cnc(-c2ccccn2)o1)N1CCc2[nH]cnc2[C@@H]1c1cc2ccccc2cn1 [Example 309, (S)-(4-(isoquinolin-3-yl)-6,7-dihydro-1H-imidazo[4,5-c]pyridin-5(4H)-yl)(2-(pyridin-2-yl)oxazol-5-yl)methanone]
1 to 5 µM | O=C(c1cnc(-c2ccccn2)s1)N1CCc2[nH]cnc2C1c1ccc2ccccc2n1 (stereo in doubt) [Example 2, (S)-(2-(pyridin-2-yl)thiazol-5-yl)(4-(quinolin-2-yl)-6,7-dihydro-1H-imidazo[4,5-c]pyridin-5(4H)-yl)methanone]
0.5 to 1 µM | C[C@@H]1CN(C(=O)c2nnc(C3CC3)o2)[C@H](c2cc3ccccc3cn2)c2nc[nH]c21 [Example 513, (5-cyclopropyl-1,3,4-oxadiazol-2-yl)((4R,7R)-4-(isoquinolin-3-yl)-7-methyl-6,7-dihydro-1H-imidazo[4,5-c]pyridin-5(4H)-yl)methanone]
< 0.5 µM | CC(O)c1nc(Br)c(C(=O)N2CCc3[nH]cnc3[C@H]2c2ccc3ccccc3n2)o1 (single isomer, unassigned) [Example 134]
< 0.5 µM | O=C(c1cnn2cc(-c3ccccc3)ccc12)N1CCc2[nH]cnc2[C@H]1c1cc2ccccc2cn1 [Example 485, (R)-(4-(isoquinolin-3-yl)-6,7-dihydro-1H-imidazo[4,5-c]pyridin-5(4H)-yl)(6-phenylpyrazolo[1,5-a]pyridin-3-yl)methanone]
< 0.5 µM | CC(C)(O)c1nc(C(F)F)c(C(=O)N2CCc3[nH]cnc3[C@H]2c2cc3ccccc3nn2)o1 [Example 209, (S)-(4-(cinnolin-3-yl)-6,7-dihydro-1H-imidazo[4,5-c]pyridin-5(4H)-yl)(4-(difluoromethyl)-2-(2-hydroxypropan-2-yl)oxazol-5-yl)methanone]
> 5 µM | O=C(c1nnc(NC2CC2)o1)N1CCc2[nH]cnc2[C@@H]1c1cc2ccccc2cn1 [Example 371, (S)-(5-(cyclopropylamino)-1,3,4-oxadiazol-2-yl)(4-(isoquinolin-3-yl)-6,7-dihydro-1H-imidazo[4,5-c]pyridin-5(4H)-yl)methanone]
1 to 5 µM | COc1ccc(-c2nnc(C(=O)N3CCc4[nH]cnc4[C@@H]3c3ncc4ccccc4n3)o2)nc1 [Example 182, (R)-(5-(5-methoxypyridin-2-yl)-1,3,4-oxadiazol-2-yl)(4-(quinazolin-2-yl)-6,7-dihydro-1H-imidazo[4,5-c]pyridin-5(4H)-yl)methanone]
0.5 to 1 µM | C[C@@H](O)c1nnc(C(=O)N2CCc3[nH]cnc3[C@H]2c2cc3ccccc3cn2)o1 [Example 465, (5-((R)-1-hydroxyethyl)-1,3,4-oxadiazol-2-yl)((R)-4-(isoquinolin-3-yl)-6,7-dihydro-1H-imidazo[4,5-c]pyridin-5(4H)-yl)methanone]
1 to 5 µM | O=C(c1cn[nH]c1Cl)N1CCc2[nH]cnc2C1c1ccc2ccccc2n1 (stereo in doubt) [Example 123, (S)-(5-chloro-1H-pyrazol-4-yl)(4-(quinolin-2-yl)-6,7-dihydro-1H-imidazo[4,5-c]pyridin-5(4H)-yl)methanone]
0.5 to 1 µM | O=C(c1nnc(-c2ccc(F)c(F)c2)o1)N1CCc2[nH]cnc2C1c1ccc2ccccc2n1 (stereo in doubt) [Example 69, (R)-(5-(3,4-difluorophenyl)-1,3,4-oxadiazol-2-yl)(4-(quinolin-2-yl)-6,7-dihydro-1H-imidazo[4,5-c]pyridin-5(4H)-yl)methanone]
> 5 µM | O=C(c1nnc(-c2cnn(CC(F)(F)F)c2)o1)N1CCc2[nH]cnc2[C@@H]1c1ccc2ccccc2n1 (single isomer, unassigned) [Example 68]
< 0.5 µM | O=C(c1nnc(-c2c(F)cccc2F)o1)N1CCc2[nH]cnc2C1c1ccc2ccccc2n1 (stereo in doubt) [Example 23, (R)-(5-(2,6-difluorophenyl)-1,3,4-oxadiazol-2-yl)(4-(quinolin-2-yl)-6,7-dihydro-1H-imidazo[4,5-c]pyridin-5(4H)-yl)methanone]
< 0.5 µM | O=C(c1nnc(-c2cnn(C3CCC3)c2)o1)N1CCc2[nH]cnc2[C@H]1c1cc2ccccc2cn1 [Example 449, (R)-(5-(1-cyclobutyl-1H-pyrazol-4-yl)-1,3,4-oxadiazol-2-yl)(4-(isoquinolin-3-yl)-6,7-dihydro-1H-imidazo[4,5-c]pyridin-5(4H)-yl)methanone]
1 to 5 µM | Cn1ccc(-c2nnc(C(=O)N3CCc4[nH]cnc4C3c3ccc4ccccc4n3)o2)n1 (stereo in doubt) [Example 86, (S)-(5-(1-methyl-1H-pyrazol-3-yl)-1,3,4-oxadiazol-2-yl)(4-(quinolin-2-yl)-6,7-dihydro-1H-imidazo[4,5-c]pyridin-5(4H)-yl)methanone]
